Assays:
GLUT1 [1] = target: T1, GLUT1 (Homo sapiens, UniProt P11166); experiment: Reduction of specific 3H-cytochalasin B binding in HCLE cells; type: cell-based
T1 sequence (P11166 1-492): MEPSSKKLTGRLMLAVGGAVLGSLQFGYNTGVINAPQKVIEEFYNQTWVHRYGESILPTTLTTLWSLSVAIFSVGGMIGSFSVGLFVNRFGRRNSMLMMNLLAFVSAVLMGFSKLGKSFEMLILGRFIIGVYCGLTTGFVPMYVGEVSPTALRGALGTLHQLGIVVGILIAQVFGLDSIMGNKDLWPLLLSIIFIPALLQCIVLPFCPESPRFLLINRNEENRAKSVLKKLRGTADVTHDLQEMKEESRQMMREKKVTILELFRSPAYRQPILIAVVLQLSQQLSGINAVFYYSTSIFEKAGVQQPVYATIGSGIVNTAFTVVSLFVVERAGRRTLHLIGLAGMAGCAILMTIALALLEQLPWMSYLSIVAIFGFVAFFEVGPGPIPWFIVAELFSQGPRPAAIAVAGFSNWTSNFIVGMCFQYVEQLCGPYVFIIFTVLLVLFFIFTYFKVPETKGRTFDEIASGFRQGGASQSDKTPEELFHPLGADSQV

GLUT1 [2] = target: T2, GLUT1 (Mus musculus, UniProt P17809); experiment: Inhibition of 3H-2-deoxyglucose uptake in L929 cells; type: cell-based
T2 sequence (P17809 1-492): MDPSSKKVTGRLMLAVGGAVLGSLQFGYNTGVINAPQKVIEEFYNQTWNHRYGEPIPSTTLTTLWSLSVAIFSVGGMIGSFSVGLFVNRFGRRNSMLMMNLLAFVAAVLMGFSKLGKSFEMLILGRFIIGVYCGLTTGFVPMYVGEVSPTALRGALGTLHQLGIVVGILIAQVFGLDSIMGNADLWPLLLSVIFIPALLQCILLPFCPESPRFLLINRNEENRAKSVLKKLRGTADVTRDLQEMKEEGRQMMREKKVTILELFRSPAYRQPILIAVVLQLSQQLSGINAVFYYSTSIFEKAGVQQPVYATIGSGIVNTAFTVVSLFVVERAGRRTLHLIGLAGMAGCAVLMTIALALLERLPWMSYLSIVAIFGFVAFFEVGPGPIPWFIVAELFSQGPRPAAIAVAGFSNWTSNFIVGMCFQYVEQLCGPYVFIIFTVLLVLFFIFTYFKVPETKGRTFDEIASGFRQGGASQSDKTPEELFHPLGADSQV

Reduction of specific 3H-cytochalasin B binding in HCLE cells; 2DG uptake inhibi (GLUT1 [1]): 80% reduction at 75
IC50 (GLUT1 [2]): 19 µM
SMILES: COc1cc(/C=C/C(=O)CC(=O)/C=C/c2ccc(O)c(OC)c2)ccc1O [Cur, Curcumin]

— PMC5006061 (Biochimie, 2016)
